Like-named read-outs stand apart in the source and are kept apart here.
Columns and labels:
[1] = biological target: T1, NS5B from the BK strain (genotype 1b) (Hepatitis C virus genotype 1b, UniProt P26663); test: Hepatitis C polymerase (NS5B, BK strain) inhibition, radioactive filter assay; type: biochemical; settings: NS5B BK strain (genotype 1b)
T1 construct: NS5B from the BK strain (genotype 1b) is expressed in E coli as a protein in which the 21 C-terminal amino acids are replaced; made in house; host or cells: E. coli
Source text: (§1) The ability of the compounds of the present invention to inhibit Hepatitis C Polymerase was established by the following experimental procedure:
NS5B from the BK strain (genotype 1b) is expressed in E coli as a protein in which the 21 C-terminal amino acids are replaced with a short linker and a hexahistidine tag ([…]). The purified protein is mixed with radioactive nucleotides and allowed to replicate a heteropolymeric RNA substrate, primed by an endogenous short hairpin, resulting in an approximately 760 nt product. The radioactive product is captured on a filter and quantitated after removal of the unincorporated nucleotides.
(§2) • 0.5M Na Phosphate buffer. Per liter, weigh 134 gr Na2HPO4.7H2O, add water to 900 ml. Adjust pH to 7.0 with phosphoric acid. Top off with water to 1 L. • Dilute nucleotides 1:1000 to 10 μM (GTP and CTP) or 1:100 to 100 μM (ATP and UTP) into RNase free water. Procedure: • (1) Compounds 10 μl at […] in 15% dimethylsulfoxide (DMSO) When starting from 100 μg/ml compound stock in 1% DMSO: Dispense 5 μl 30% DMSO per well Dispense 5 μl compound (100 μg/ml) per well. When starting from 50 μg/ml compound stock in 15% DMSO: Add 10 μl compound per well.
(§3) Add 20 μl enzyme mix into each well of the assay plate. Incubate compound and enzyme at room temperature for 15 minutes • (3) Template mix—prepare ahead
(§4) Spin down a tube of RNA (5 μg/tube stored in 75% ethanol and 0.3 M sodium acetate) in a microcentrifuge for 20 minutes at 4° C. One tube is enough for 1-1.5 plates. Remove as much ethanol from the tube as possible by inverting the tube. Be gentle, pellet RNA may not adhere to the tube. Vacuum dry the RNA. Resuspend the RNA by adding 1 ml of DEPC water, close the cap of the tube tightly. To dissolve RNA, incubate RNA solution on ice for ˜60 minutes and gently vortex. Spin briefly to ensure all RNA solution is down to the bottom of the tube before opening cap. Gently transfer RNA solution into a 5 ml or larger tube. Add another 3 ml of DEPC water (total 4 ml of volume).
(§5) Add the following volumes of reagents
(§6) Add 20 μl template mix per reaction (i.e. 20 ng of pOF per reaction or ˜3 nM) • (4) Incubate reaction at room temperature (22-25° C.) for 2 hours. • (5) Stop reaction by adding 50 μl of 170 mM EDTA.
(§7) Final concentration of EDTA is 85 mM. • (6) Prewet filters of Millipore multiscreen assay plate by adding 200 μl of 0.5 M sodium phosphate buffer, pH 7.0 into each well. Let stand at room temperature for 2-3 minutes. • (7) Place the multiscreen filter plate onto a Millipore Manifold and turn on vacuum to allow buffer to flow through. Turn off vacuum. Transfer 80 μl of the reaction product into each well of the filter plate. Let stand for 2-3 minutes. Turn on vacuum to filter reaction product. • (8) Turn off vacuum. Add 200 μl of 0.5 M sodium phosphate buffer, pH 7.0 into each well to wash filter. Turn on vacuum.
(§8) Repeat step (8) three more times. • (9) Remove polypropylene bottom. Spot dry filter at the bottom with paper towel. Air dry filter plate on a bench for 1 hour. Add 40 μl Super Mix scintillant. Seal top of the plate with a tape. Place plate into a Packard carrier or micro-beta carrier. • (10) Count plate using a Packard Topcount or micro-beta counter. Count (for example using Program 10) for ^33P in Top count or ^33P program in micro-beta.
(§9) See, Ferrari et al. 1999. J. Virology 73:1649-1654: “Characterization of soluble Hepatitis C virus RNA-dependent RNA polymerase expressed in E. coli and Takamizawa et al. 1991” and J. Virology 65:1105-1113: “Structure and characterization of the Hepatitis C virus genome isolated from human carriers,” both references are hereby incorporated by reference.

[2] = biological target: BB7 RNA-dependent RNA polymerase hepatitis C virus protein (Con1 HCV sequence) (Hepatitis C virus genotype 1b, UniProt Q9WMX2); test: Hepatitis C polymerase (BB7) inhibition; type: biochemical
Source text: For purposes of this invention, the term “BB7” denotes an RNA-dependent RNA polymerase hepatitis C virus protein sequence which is derived from HCV replicon. A discussion of BB7 and related technology can be found in Blight, K. et al. (2000) Science 290:1972-1974. BB7 can be licensed from Apath, LLC (893 North Warson Road, Saint Louis Mo. 63141, USA). BB7 is also referred to as Con1 HCV sequence and discussions of Con1 can be found in the following references: Lohmann, V. et al. (1999) Science 285:110-113; Pietschmann, T. et al. (2001) J. Virol. […]:1252-1264; Lohmann, V. et al. (2001) J. Virol. 75:1437-1449.
as §1, §2, §3, §4, §5, §6, §7, §8, §9

[3] = BB7 (Con1) NS5B, read-out: BB7 IC50

Chain of BB7 RNA-dependent RNA polymerase hepatitis C virus protein (Con1 HCV sequence) (Q9WMX2 2420-3010): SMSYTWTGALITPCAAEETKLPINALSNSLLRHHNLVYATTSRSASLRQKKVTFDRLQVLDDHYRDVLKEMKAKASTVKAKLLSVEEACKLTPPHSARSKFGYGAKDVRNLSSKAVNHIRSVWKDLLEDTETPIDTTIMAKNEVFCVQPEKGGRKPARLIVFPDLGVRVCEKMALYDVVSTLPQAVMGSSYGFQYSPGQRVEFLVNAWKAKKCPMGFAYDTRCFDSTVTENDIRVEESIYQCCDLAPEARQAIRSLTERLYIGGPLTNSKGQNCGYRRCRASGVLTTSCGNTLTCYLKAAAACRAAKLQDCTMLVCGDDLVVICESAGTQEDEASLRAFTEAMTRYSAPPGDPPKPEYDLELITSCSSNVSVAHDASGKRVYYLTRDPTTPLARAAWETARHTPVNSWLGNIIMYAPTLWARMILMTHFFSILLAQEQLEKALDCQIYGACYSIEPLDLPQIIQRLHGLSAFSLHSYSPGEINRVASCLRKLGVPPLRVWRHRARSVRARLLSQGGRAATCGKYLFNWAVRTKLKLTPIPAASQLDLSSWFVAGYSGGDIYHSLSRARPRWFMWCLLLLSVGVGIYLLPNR
T1 sequence (P26663 2420-2989): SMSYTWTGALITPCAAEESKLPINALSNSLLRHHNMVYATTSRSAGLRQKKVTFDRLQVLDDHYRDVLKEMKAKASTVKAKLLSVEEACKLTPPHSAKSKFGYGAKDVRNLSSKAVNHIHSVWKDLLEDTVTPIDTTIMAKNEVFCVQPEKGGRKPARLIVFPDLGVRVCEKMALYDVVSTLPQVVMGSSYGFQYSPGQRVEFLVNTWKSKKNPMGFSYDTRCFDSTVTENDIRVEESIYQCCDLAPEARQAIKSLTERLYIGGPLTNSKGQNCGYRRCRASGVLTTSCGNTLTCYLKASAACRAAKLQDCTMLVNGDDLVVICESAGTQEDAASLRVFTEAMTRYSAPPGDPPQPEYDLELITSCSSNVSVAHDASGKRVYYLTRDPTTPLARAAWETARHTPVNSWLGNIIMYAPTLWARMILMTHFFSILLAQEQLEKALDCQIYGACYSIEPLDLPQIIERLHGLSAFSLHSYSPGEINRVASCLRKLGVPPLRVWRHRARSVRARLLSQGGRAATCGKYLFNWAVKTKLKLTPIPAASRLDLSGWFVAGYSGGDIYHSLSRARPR

| SMILES | IC50 [1] | IC50 [2] | IC50 [2, 3] |
| --- | --- | --- | --- |
| CCC[C@]1(CC(=O)O)OCCc2c1[nH]c1c(C)c(OCc3nsc(N(C)C)n3)cc(C#N)c21 [Example 30, (R)-[5-Cyano-7-(5-dimethylamino-[1,2,4]thiadiazol-3-ylmethoxy)-8-methyl-1-propyl-1,3,4,9-tetrahydro-pyrano[3,4-b]indol-1-yl]-acetic acid] | < 500 nM | < 500 nM |  |
| CCCC1(CC(=O)O)OCCc2c1[nH]c1c(C)c(OCc3ccnc(C(C)(C)O)c3)cc(C#N)c21 (stereo not shown) [Example 91] | < 500 nM | < 500 nM |  |
| CCCC1(CC(=O)O)OCCc2c1[nH]c1c(C)c(OCCOCc3ccccc3)cc(C#N)c21 (stereo not shown) [Example 117] | < 500 nM | < 500 nM |  |
| CCCC1(CC(=O)O)OCCc2c1[nH]c1c(C)c(CO)cc(C#N)c21 (stereo not shown) [Example 1, (5-Cyano-7-hydroxymethyl-8-methyl-1-propyl-1,3,4,9-tetrahydro-pyrano[3,4-b]indol-1-yl)-acetic acid] | < 500 nM | < 500 nM |  |
| CCCC1(CC(=O)O)OCCc2c1[nH]c1c(C)c(OCc3ccnc(C(C)=O)c3)cc(C#N)c21 (stereo not shown) [Example 90] | < 500 nM | < 500 nM |  |
| CCC[C@]1(CC(=O)O)OCCc2c1[nH]c1c(C)c(OCc3cc(C)on3)cc(C#N)c21 [Example 23, (R)-[5-Cyano-8-methyl-7-(5-methyl-isoxazol-3-ylmethoxy)-1-propyl-1,3,4,9-tetrahydro-pyrano[3,4-b]indol-1-yl]-acetic acid] | < 500 nM | < 500 nM |  |
| CCCC1(CC(=O)O)OCCc2c1[nH]c1c(C)c(OCc3cc(C(F)(F)F)n[nH]3)cc(C#N)c21 (stereo not shown) [Example 129] | < 500 nM |  | < 500 nM |
| CCCC1(CC(=O)O)OCCc2c1[nH]c1c(C)c(OCc3cc[n+]([O-])cc3)cc(C#N)c21 (stereo not shown) [Example 71] | < 500 nM | < 500 nM |  |
| CCCC1(CC(=O)O)OCCc2c1[nH]c1c(C)c(OCc3ccnc(C(C)O)c3)cc(C#N)c21 (stereo not shown) [Example 92] | < 500 nM | < 500 nM |  |
| CCC[C@]1(CC(=O)O)OCCc2c1[nH]c1c(C)c(OCCOCC)cc(C#N)c21 [Example 118] | < 500 nM | < 500 nM |  |
| CCC[C@]1(CC(=O)O)OCCc2c1[nH]c1c(C)c(OCc3ccnc(C)c3)cc(C#N)c21 [Example 53] | < 500 nM | < 500 nM |  |
| CCCC1(CC(=O)O)OCCc2c1[nH]c1c(C)c(OCc3nccs3)cc(C#N)c21 (stereo not shown) [Example 60] | < 500 nM | < 500 nM |  |
| CCCC1(CC(=O)O)OCCc2c1[nH]c1c(C)c(OCCC3CC3)cc(C#N)c21 (stereo not shown) [Example 48] | < 500 nM | < 500 nM |  |
| CCCC1(CC(=O)O)OCCc2c1[nH]c1c(C)c(OCc3ccnc(NS(C)(=O)=O)c3)cc(C#N)c21 (stereo not shown) [Example 96] | < 500 nM | < 500 nM |  |
| CCCC1(C(=O)O)OCCc2c1[nH]c1c(C)c(OCc3ccncc3)cc(C#N)c21 (stereo not shown) [Example 37] | < 500 nM | < 500 nM |  |
| CCCC1(CC(=O)O)OCCc2c1[nH]c1c(C)c(OCC3CN(S(C)(=O)=O)C3)cc(C#N)c21 (stereo not shown) [Example 123] | < 500 nM | < 500 nM |  |
| CCCC1(CC(=O)O)OCCc2c1[nH]c1c(C)c(OCc3ccc(N)nc3)cc(C#N)c21 (stereo not shown) [Example 69] | < 500 nM | < 500 nM |  |
| CCCC1(CC(=O)O)OCCc2c1[nH]c1c(C)c(OCc3nnc(C(C)(C)C)s3)cc(C#N)c21 (stereo not shown) [Example 87] | < 500 nM | < 500 nM |  |

| SMILES | IC50 [1] | IC50 [2] | IC50 [2, 3] |
| --- | --- | --- | --- |
| CCCC1(CC(=O)O)OCCc2c1[nH]c1c(C)c(OCc3cc(C)[nH]n3)cc(C#N)c21 (stereo not shown) [Example 128] | < 500 nM | < 500 nM |  |
| CCCC1(CC(=O)O)OCCc2c1[nH]c1c(C)c(COCc3ccc(C)cc3C)cc(C#N)c21 (stereo not shown) [Example 17, [5-Cyano-7-(2,4-dimethyl-benzyloxymethyl)-8-methyl-1-propyl-1,3,4,9-tetrahydro-pyrano[3,4-b]indol-1-yl]-acetic acid] | 500 to 5000 nM | > 5000 nM |  |
| CCCC1(CC(=O)O)OCCc2c1[nH]c1c(C)c(OCc3cc(C4CC4)n(C)n3)cc(C#N)c21 (stereo not shown) [Example 130] | < 500 nM | < 500 nM |  |
| CCCC1(CC(=O)O)OCCc2c1[nH]c1c(C)c(OCC3CCNCC3)cc(C#N)c21 (stereo not shown) [Example 74] | < 500 nM | < 500 nM |  |
| CCCC1(CC(=O)O)OCCc2c1[nH]c1c(C)c(OCC3CC3)cc(C#N)c21 (stereo not shown) [Example 22, (5-Cyano-7-cyclopropylmethoxy-8-methyl-1-propyl-1,3,4,9-tetrahydro-pyrano[3,4-b]indol-1-yl)-acetic acid] | < 500 nM | < 500 nM |  |
| CCCC1(CC(=O)O)OCCc2c1[nH]c1c(C)c(OCCSC)cc(C#N)c21 (stereo not shown) [Example 50] | < 500 nM | < 500 nM |  |
| CCCC1(CC(=O)O)OCCc2c1[nH]c1c(C)c(COC3CCCCC3)cc(C#N)c21 (stereo not shown) [Example 7, (5-Cyano-7-cyclohexyloxymethyl-8-methyl-1-propyl-1,3,4,9-tetrahydro-pyrano[3,4-b]indol-1-yl)-acetic acid] | 500 to 5000 nM | 500 to 5000 nM |  |
| CCCC1(CC(=O)O)OCCc2c1[nH]c1c(C)c(OCc3c[nH]cn3)cc(C#N)c21 (stereo not shown) [Example 76] | < 500 nM |  | < 500 nM |
| CCCC1(CC(=O)O)OCCc2c1[nH]c1c(C)c(CO[C@@H]3CCOC3)cc(C#N)c21 (mixture of isomers) [Example 14, (3′R,1S*)[5-Cyano-8-methyl-1-propyl-7-(tetrahydro-furan-3-yloxymethyl)-1,3,4,9-tetrahydro-pyrano[3,4-b]indol-1-yl]-acetic acid] | 500 to 5000 nM | 500 to 5000 nM |  |
| CCCC1(CC(=O)O)OCCc2c1[nH]c1c(C)c(OCC3CCSCC3)cc(C#N)c21 (stereo not shown) [Example 106] | < 500 nM | < 500 nM |  |
| CCCC1(CC(=O)O)OCCc2c1[nH]c1c(C)c(OCc3cccc(N)n3)cc(C#N)c21 (stereo not shown) [Example 59] | < 500 nM | < 500 nM |  |
| CCCC1(CC(=O)O)OCCc2c1[nH]c1c(C)c(OCc3ccc(N4CCOCC4)nc3)cc(C#N)c21 (stereo not shown) [Example 68] | < 500 nM | < 500 nM |  |
| CCCC1(CC(=O)O)OCCc2c1[nH]c1c(C)c(OCc3ccccn3)cc(C#N)c21 (stereo not shown) [Example 49] | < 500 nM | < 500 nM |  |
| CCCC1(CC(=O)O)OCCc2c1[nH]c1c(C)c(OCc3nsc(N(C)C)n3)cc(C#N)c21 (stereo not shown) [Example 136] | < 500 nM |  | < 500 nM |
| CCCC1(CC(=O)O)OCCc2c1[nH]c1c(C)c(OCC(C)=NOCC)cc(C#N)c21 (stereo not shown) [Example 104] | < 500 nM | < 500 nM |  |
| CCCC1(CC(=O)O)OCCc2c1[nH]c1c(C)c(OCc3nn(C)cc3Cl)cc(C#N)c21 (stereo not shown) [Example 75] | < 500 nM | < 500 nM |  |
| CCCC1(CC(=O)O)OCCc2c1[nH]c1c(C)c(OC[C@@H](C)OC)cc(C#N)c21 (stereo partly shown) [Example 141] | < 500 nM | < 500 nM |  |
